Entries after “also recorded” stand apart in the source; their conditions may differ.
Experiments:
MT-1 cells = experiment: PDT effect on in vitro MT-1 cells (SRB assay); assay type: cell-based, human
Method: Method: MT-1 cells were grown and maintained in RPMI media containing penicillin and streptomycin with 10% fetal bovine serum at 37 degrees Celsius. Once the cells had reached subconfluence they were resuspended in free RPMI. The cells were harvested using 0.05% trypsin—0.05 mM EDTA solution. Cells were then counted with a hemocytometer and plated at 2×10^5 cells/ml in a 96 well plate. BPD-MA was then added to the individual wells at a concentration of 1 ug/ml or 10 ug/ml. […] Following treatment the cells were allowed to survive for 24 hours following which an SRB assay was performed to establish the number of viable cells remaining. Briefly, cells were fixed in 10% trichloroacetic acid and stained with a […] solution selectively staining viable cells. A spectrophotometer was then used to assess the absorbance of 540 nm light within individual wells of the 96 well plate which was correlated to the number of remaining cells following treatment.

[1] = BPD uptake in the serum and spinal cord (fluorimetry, fluorescent microscopy); assay type: in vivo, rats (Sprague-Dawley)
Method: Method: BPD-MA was administered to 10 rats (Sprague-Dawley, 150 gm) through a tail vein injection. Animals were then sacrificed using CO2 inhalation overdose at 16 minutes, 3 hrs, 6 hrs and 24 hrs following injection. Control animals without BPD-MA were euthanized in a similar fashion. Serum samples and spinal cord tissue samples were harvested from the animals at the time of euthanasia. A segment of spine was also fixed in 10% formalin for 7 days followed by decalcification for 7 days in 10% formic acid for fluoroscopic microscopic analysis. A control assay determined that BPD-MA fluorescence was not affected by formic acid. BPD-MA concentration within the serum and spinal cord tissue was then determined using fluorimetry. Briefly, the samples were solubilized and the samples were tested with excitation and emission spectra specific to BPD-MA. The fluorescence of the drug within the tissue was correlated to the specific uptake of the drug within the tissue. Fluorescent microscopy was also used to visualize the presence or absence of BPD-MA within the vertebrae and spinal cord at 1 hour, 3 hours and 24 hours.

[2] = test system: MT-1 cells, a human breast cancer cell line; experiment: Effect of PDT in vertebrae and long bones with metastases (area of effect, histology); assay type: in vivo, mu/mu nude rats
Text: (§1) Method: Thirty mu/mu nude rats were used in this part of the study. The rats received a left ventricular intracardiac injection with MT-1 cells as described earlier. At day 21 post injection each animal was anesthetized with 2% halothane/air mixture and placed on a custom made radiolucent stereotactic jig in the left lateral decubitus position. Prior to this it was established by histological methods that animals with tumors contained tumor in most vertebral bodies and long bones. Because lesions within the vertebral bodies could not be detected by fine detail radiography, T12 and L4 vertebrae were selected as representative levels for treatment. An 18 g needle was placed on the cortex of the targeted vertebrae or long bone with the use of a mini C-arm image intensifier. A 300 mW diode laser coupled to a 200 um fiber was used to deliver 690 nm light. BPD-MA was administered intravenously at a dose of 2 mg/kg prior to the administration of the light dose. […] Light doses ranged from 25 J to 150 J. Light was delivered at 150 mW for all treatments and the effects of different drug light intervals and different light doses using a fixed drug concentration were evaluated. The animals were examined for paralysis post treatment. The animals were sacrificed using CO2 inhalation. Vertebrae were then harvested and fixed in 10% formalin for 7 days. Micro-CT images were obtained and then the samples were decalcified in 10% formic acid for 7 days. The tissue was then blocked and paraffin embedded and 10 um sections were cut. The sections were analyzed under light microscopy using H&E staining as well as TUNEL and human EGF-r immunohistochemistry. The area of effect as denoted by necrosis and apoptosis was identified and measured using a Nikon slide scanner and Image Pro software.

[3] = test system: MT-1luc+ metastatic lesions; experiment: Targeted bioluminescent lesions, pre and post-PDT bioluminescent imaging; assay type: in vivo, nude mu/mu rats
Method: Method: Twenty nude mu/mu (Harlan) female rats (4-6 weeks of age) were used in this part of the study. The protocol was in accordance with the Canadian Council on Animal Care prior to initiation. Prior to injection each animal was anesthetized with 2% halothane/air mixture in a sterile environment. Twenty animals were used for injection. The chest was prepared with alcohol and 2×10^6 MT-1luc+ cells, a human breast cancer cell line carrying the luciferase reporter gene, were injected into the left ventricle using a 1 ml syringe with a 26 g needle. Pulsatile blood in the syringe was ensured prior to each injection. The animals were placed back into their cages and fed water and rat chow ad libitum. At day 18 the animals were imaged using the Xenogen IVIS system. To do this 100 mg/kg luciferin was injected into the peritoneal cavity of each animal and each animal was imaged 5 minutes following injection for a 1 to 5 minute image acquisition period. The animals were then imaged on the same custom made stereotactic radiolucent jig using a mini-C-arm image intensifier which allowed correlation of the bioluminescent signal to the vertebrae. FIGS. 1A-C show stereotactic targeting of bioluminescent metastatic lesions using a mini-C-arm image intensifier. FIG. 1A is a bioluminescent overlay image of a nude rat with metastatic lesions on a radio lucent stereotactic jig. FIG. 1B is a fluoroscan image of markers placed along the grid of the stereotactic jig in correlation to the bioluminescent metastases and resulting in localization of the lesion.
The lesions were then targeted and treated with 25 J or 150 J at a 3 hour drug light interval. The animals were then re-imaged with the Xenogen IVIS system 48 hours post treatment in the stereotactic frame. Signal intensity (photons/second/cm^2) at the targeted site before treatment was compared to signal intensity following treatment and compared to lesions not treated using Igor Pro software (Alameda, Calif.). The animals were then sacrificed using CO2 inhalation and the spines and long bones were harvested. Samples were placed in 10% formalin for 7 days and micro-CT images of the vertebrae and long bones were obtained. The vertebrae were examined histologically using H&E staining and immunohistologically with human EGF-r and TUNEL stains as described earlier. ANOVA Bonferroni and two-tailed paired T-test statistical techniques were applied.

[4] = Effect of light dose on the rat spinal cord, spinal nerves and peripheral nerves (hind leg paralysis); assay type: in vivo, mu/mu nude rats
Text: as §1

[5] = Treatment groups: deaths of rats; assay type: in vivo, mu/mu nude rats
[6] = pig, in vivo
Method: In this study, 50 kg pigs were used. The pigs were pre-anesthetized with ketamine/xylazine 20/2 mg/Kg IM for induction. An IV line was established and 0.9% saline solution was run at 5 ml/Kg/hr. Verteporfin was administered through the IV line using an infusion pump. The pigs were intubated and maintained on a ventilator with isofluorane/nitrous oxide inhalant by animal care professionals. The pigs were placed prone on a radiolucent surgical table with appropriate bolsters for support and padding. A sterile prep was made with betadine soap and scrub and prep solution. A small stab incision was made over the lumbothoracic spine of the pig.
Placement into the vertebral body through a transpedicular and parapedicular approach was facilitated by the use of a CT-Carm. The L1 and L2 vertebrae were targeted.
A cannulated exchange sheath was placed over the guide rod and inserted through the incision. The guide rod was then removed, and a fiber optic cable sheath was then inserted down the cannula of the exchange sheath. […] The cannulated bone screw assembly was pushed down the cannulated exchange sheath. […]
Detector and diffusing fibers were placed in the same transverse plane. The diffusing fiber was moved incrementally with respect to the detector fiber and differences in power were measured at five different distances from the detector source using a computer aided photomultiplier tube. […]

[7] = test system: orthotopic chondrosarcoma and fibrosarcoma tumor models; details: 4 weeks post treatment; 15 minute and 3 hour drug light interval; cited from earlier work
[8] = 25 J, drug-light interval 3 hrs
[9] = 50 J, drug-light interval 3 hrs
[10] = 75 J, drug-light interval 0.75 hrs
[11] = 75 J, drug-light interval 3 hrs
[12] = 100 J, drug-light interval 3 hrs
[13] = 150 J, drug-light interval 3 hrs

**Q.** With “benzoporphyrin derivative monoacid ring A [BPD-MA]” as the substance, how does the “Mean (absorbance), SRB assay” value (MT-1 cells; Group 1: drug 1 ug/ml, light 200 J/cm^2, 690 nm, 8 hour incubation) read?
**A.** .2923

**Q.** What about the “Mean (absorbance), SRB assay” value (MT-1 cells; Group 2: drug 1 ug/ml, light 25 J/cm^2) of the same substance?
**A.** .1946

**Q.** And the “Mean (absorbance), SRB assay” value (MT-1 cells; Group 3: drug 10 ug/ml, light 200 J/cm^2)?
**A.** .2558

**Q.** What about the “Mean (absorbance), SRB assay” value (MT-1 cells; Group 4: drug 10 ug/ml, light 25 J/cm^2) of the same substance?
**A.** .2049

**Q.** And the “Mean (absorbance), SRB assay” value (MT-1 cells; Group 7: drug 1 ug/ml, no light)?
**A.** 1.2392

**Q.** And the “difference in absorbance versus untreated wells” value (MT-1 cells; drug only)?
**A.** No significant difference

**Q.** What about the “difference in absorbance versus untreated wells” value (MT-1 cells; wells treated with light and drug) of the same substance?
**A.** significant difference

**Q.** What about the “BPD-MA fluorescence in bone marrow” value ([1]; 1 hour) of the same substance?
**A.** contained signal

**Q.** And the “BPD-MA fluorescence in spinal cord” value ([1]; 1 hour)?
**A.** no drug being present

**Q.** What about the “BPD-MA fluorescence in bone marrow” value ([1]; 3 hours) of the same substance?
**A.** intense signal

**Q.** What about the “BPD-MA fluorescence in spinal cord” value ([1]; 3 hours) of the same substance?
**A.** intense signal

**Q.** What about the “fluorescence of the drug within the spinal cord and vertebrae” value ([1]; 24 hours) of the same substance?
**A.** returned to baseline levels

**Q.** What about the serum drug concentration ([1]; after 3 hours) of the same substance?
**A.** began to decline

**Q.** What about the serum drug concentration ([1]; by 24 hours post injection) of the same substance?
**A.** returned to baseline

**Q.** And the “uptake of BPD-MA in spinal cord” value ([1]; drug uptake studies (fluorimetry))?
**A.** minimal uptake

**Q.** What about the “delay of uptake into the spinal cord” value ([1]; fluorescence microscopy) of the same substance?
**A.** greater than 1 hour

**Q.** And the serum drug concentration ([1]; over 15 minutes post tail vein injection)?
**A.** rapid increase

**Q.** And the “Antero-Posterior dimension of effect” value [2, 8]?
**A.** 2.62 mm

**Q.** And the “Rostral-Caudal dimension of effect” value [2, 8]?
**A.** 4.59 mm

**Q.** And the Area of effect ([2]; 25 J, drug-light interval 3 hrs, 2 mg/kg i.v.)?
**A.** 8.435 mm^2

**Q.** And the “Antero-Posterior dimension of effect” value [2, 9]?
**A.** 3.89 mm

**Q.** And the Area of effect [2, 9]?
**A.** 15.04 mm^2

**Q.** And the “Rostral-Caudal dimension of effect” value [2, 9]?
**A.** 5.66 mm

**Q.** What about the “Antero-Posterior dimension of effect” value [2, 10] of the same substance?
**A.** 5.05 mm

**Q.** What about the Area of effect [2, 10] of the same substance?
**A.** 82.47 mm^2

**Q.** And the “Rostral-Caudal dimension of effect” value [2, 10]?
**A.** 17.47 mm

**Q.** And the “Antero-Posterior dimension of effect” value [2, 11]?
**A.** 5.09 mm

**Q.** And the Area of effect [2, 11]?
**A.** 52.38 mm^2

**Q.** And the “Rostral-Caudal dimension of effect” value [2, 11]?
**A.** 11.67 mm

**Q.** And the “Antero-Posterior dimension of effect” value [2, 12]?
**A.** 5.05 mm

**Q.** What about the Area of effect [2, 12] of the same substance?
**A.** 45.49 mm^2

**Q.** And the “Rostral-Caudal dimension of effect” value [2, 12]?
**A.** 13.8 mm

**Q.** What about the “Antero-Posterior dimension of effect” value [2, 13] of the same substance?
**A.** 5.78 mm

**Q.** What about the Area of effect [2, 13] of the same substance?
**A.** 80.53 mm^2

**Q.** And the “Rostral-Caudal dimension of effect” value [2, 13]?
**A.** 13.05 mm

**Q.** What about the “diameter of largest area of effect” value ([2]; 200 um fiber optical cable, treatment time 16 minutes) of the same substance?
**A.** 2.2 cm

**Q.** What about the “ablation of tumor tissue” value ([2]; 24 hour drug light interval) of the same substance?
**A.** No effect; also recorded: no difference

**Q.** And the “effect on tumor, bone, bone marrow or spinal cord” value ([2]; drug only, no light)?
**A.** did not affect

**Q.** And the “decrease in tumor growth compared to control lesions” value ([3]; 25 J, 3 hour drug light interval)?
**A.** 66%

**Q.** What about the “PostRx/PreRx, Rx Area” value [3, 8] of the same substance?
**A.** 1.25

**Q.** What about the “reduction of bioluminescent signal from the targeted site” value ([3]; 150 J, 3 hour drug light interval, 48 hours following treatment) of the same substance?
**A.** 87%

**Q.** And the “decrease in tumor growth compared to control lesions” value ([3]; 150 J, 3 hour drug light interval, one treatment)?
**A.** 99.8%

**Q.** What about the “PostRx/PreRx, Rx Area” value ([3]; 150 J, drug light interval 3 hrs) of the same substance?
**A.** 0.139

**Q.** And the “Mean Count Rx Area” value ([3]; Post-PDT (48 hours), 25 J, drug-light interval 3 hrs)?
**A.** 2.33 × 10^4

**Q.** And the “Mean Count Rx Area” value ([3]; Post-PDT (48 hours), 150 J, drug light interval 3 hrs)?
**A.** 1.42 × 10^3

**Q.** And the “Mean Count Rx Area” value ([3]; Pre-PDT, 25 J, drug-light interval 3 hrs (n = 2))?
**A.** 1.86 × 10^4

**Q.** And the “Mean Count Rx Area” value ([3]; Pre-PDT, 150 J, drug light interval 3 hrs (n = 5))?
**A.** 1.02 × 10^4

**Q.** What about the “Hind Leg Paralysis (animals)” value ([4]; 25 J, T12, drug light interval 3 hr, N = 5) of the same substance?
**A.** 0

**Q.** And the “Hind Leg Paralysis (animals)” value ([4]; 50 J, T12, drug light interval 3 hr, N = 5)?
**A.** 2 unilateral

**Q.** And the “Hind Leg Paralysis (animals)” value ([4]; 75 J, T12, drug light interval 3 hr, N = 4)?
**A.** 1 bilateral

**Q.** And the “Hind Leg Paralysis (animals)” value ([4]; 100 J, T12, drug light interval 3 hr, N = 3)?
**A.** 2 unilateral

**Q.** And the “Hind Leg Paralysis (animals)” value ([4]; 125 J, T12, drug light interval 3 hr, N = 2)?
**A.** 1 bilateral

**Q.** And the “Hind Leg Paralysis (animals)” value ([4]; 150 J, T12, drug light interval 0.25 hr, N = 4)?
**A.** 4

**Q.** What about the “Hind Leg Paralysis (animals)” value ([4]; 150 J, T12, drug light interval 3 hr, N = 4) of the same substance?
**A.** 3 bilateral

**Q.** What about the “Death During PDT (animals)” value ([5]; MT-1 group, n = 20) of the same substance?
**A.** 0

**Q.** What about the “Death Following Verteporfin Injection (animals)” value ([5]; MT-1 group, n = 20) of the same substance?
**A.** 1

**Q.** What about the “Death During PDT (animals)” value ([5]; MT-1luc+ group, n = 30) of the same substance?
**A.** 1

**Q.** And the “Death Following Verteporfin Injection (animals)” value ([5]; MT-1luc+ group, n = 30)?
**A.** 2

**Q.** And the “complications attributed to the PDT” value [6]?
**A.** no hindleg paralysis

**Q.** What about the lesions completely ablated [7] of the same substance?
**A.** 33%

Reference: patent US7771426B2, “Bone treatment instrument and method” (University Health Network, priority 2004, dated 2010)
